In patent US9890156B2, “Bicyclic heterocycles as FGFR4 inhibitors” (Incyte Corporation, priority 2015, dated 2018) one finds IC50 data, which are given here for 22 compounds.

Where two headings read alike, the source gives them in different places.

One experiment concerns the target FGFR4 (Homo sapiens (Human), UniProt P22455). The experiment can be described thus: FGFR Enzymatic Assay (FRET, peptide phosphorylation), FGFR4.
The target of the next experiment is FGFR3 (Homo sapiens (Human), UniProt P22607). The experiment is described as follows: FGFR Enzymatic Assay (FRET, peptide phosphorylation), FGFR3. The format is biochemical. As to conditions: pre-incubated for 4 hours; ATP 140 μM.
Chain of FGFR3 (P22607 23-806): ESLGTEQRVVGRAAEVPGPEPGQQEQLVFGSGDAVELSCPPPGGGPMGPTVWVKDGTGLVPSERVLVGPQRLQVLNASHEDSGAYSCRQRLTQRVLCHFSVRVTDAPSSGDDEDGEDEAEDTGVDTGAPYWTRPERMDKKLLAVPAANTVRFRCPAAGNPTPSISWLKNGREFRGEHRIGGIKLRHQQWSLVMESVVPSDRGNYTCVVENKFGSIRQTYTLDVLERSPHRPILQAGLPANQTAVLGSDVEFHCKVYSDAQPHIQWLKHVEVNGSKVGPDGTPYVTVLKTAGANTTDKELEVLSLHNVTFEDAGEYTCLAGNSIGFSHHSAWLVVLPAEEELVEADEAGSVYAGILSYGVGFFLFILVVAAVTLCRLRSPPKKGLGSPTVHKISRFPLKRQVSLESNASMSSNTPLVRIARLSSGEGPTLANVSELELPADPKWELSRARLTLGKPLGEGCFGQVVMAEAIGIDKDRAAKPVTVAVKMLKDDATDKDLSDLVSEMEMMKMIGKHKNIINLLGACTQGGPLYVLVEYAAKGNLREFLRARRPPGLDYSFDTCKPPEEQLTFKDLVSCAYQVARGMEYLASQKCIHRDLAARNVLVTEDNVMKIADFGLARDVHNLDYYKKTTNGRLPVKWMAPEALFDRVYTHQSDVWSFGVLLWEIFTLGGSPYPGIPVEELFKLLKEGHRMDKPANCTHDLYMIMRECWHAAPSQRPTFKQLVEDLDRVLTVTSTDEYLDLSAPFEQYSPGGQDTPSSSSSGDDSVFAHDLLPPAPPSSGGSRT
The target of a further experiment is FGFR1 (Homo sapiens (Human), UniProt P11362). The experiment can be described thus: FGFR Enzymatic Assay (FRET, peptide phosphorylation), FGFR1. As to conditions: read-out: FGFR1 IC50; pre-incubated for 4 hours; ATP 210 uM.
Chain of FGFR1 (P11362 22-822): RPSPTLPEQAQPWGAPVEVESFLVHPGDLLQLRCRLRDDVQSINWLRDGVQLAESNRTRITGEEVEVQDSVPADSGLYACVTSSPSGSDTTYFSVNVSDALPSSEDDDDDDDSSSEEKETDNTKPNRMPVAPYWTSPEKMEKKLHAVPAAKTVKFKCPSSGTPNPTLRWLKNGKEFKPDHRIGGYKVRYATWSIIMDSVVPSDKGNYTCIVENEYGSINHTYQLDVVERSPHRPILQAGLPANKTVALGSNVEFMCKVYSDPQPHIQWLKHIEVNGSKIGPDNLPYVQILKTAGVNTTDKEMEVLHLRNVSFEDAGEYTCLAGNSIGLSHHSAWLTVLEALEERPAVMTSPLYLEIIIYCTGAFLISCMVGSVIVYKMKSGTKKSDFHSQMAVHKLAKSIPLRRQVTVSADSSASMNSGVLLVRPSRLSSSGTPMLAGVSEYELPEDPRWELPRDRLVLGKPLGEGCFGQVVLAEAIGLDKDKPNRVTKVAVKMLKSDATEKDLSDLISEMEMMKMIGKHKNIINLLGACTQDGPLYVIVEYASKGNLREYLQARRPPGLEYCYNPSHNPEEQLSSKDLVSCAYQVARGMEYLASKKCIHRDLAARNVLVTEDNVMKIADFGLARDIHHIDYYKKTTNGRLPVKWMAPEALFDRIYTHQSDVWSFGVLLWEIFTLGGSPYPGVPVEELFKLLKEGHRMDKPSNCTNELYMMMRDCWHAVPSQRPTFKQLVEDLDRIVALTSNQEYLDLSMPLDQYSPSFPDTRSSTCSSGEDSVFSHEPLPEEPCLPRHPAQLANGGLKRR
In the next experiment the target is FGFR2 (Homo sapiens (Human), UniProt P21802). The experiment can be described thus: FGFR Enzymatic Assay (FRET, peptide phosphorylation), FGFR2. As to conditions: read-out: FGFR2 IC50; pre-incubated for 4 hours; ATP 100 uM.
Chain of FGFR2 (P21802 22-821): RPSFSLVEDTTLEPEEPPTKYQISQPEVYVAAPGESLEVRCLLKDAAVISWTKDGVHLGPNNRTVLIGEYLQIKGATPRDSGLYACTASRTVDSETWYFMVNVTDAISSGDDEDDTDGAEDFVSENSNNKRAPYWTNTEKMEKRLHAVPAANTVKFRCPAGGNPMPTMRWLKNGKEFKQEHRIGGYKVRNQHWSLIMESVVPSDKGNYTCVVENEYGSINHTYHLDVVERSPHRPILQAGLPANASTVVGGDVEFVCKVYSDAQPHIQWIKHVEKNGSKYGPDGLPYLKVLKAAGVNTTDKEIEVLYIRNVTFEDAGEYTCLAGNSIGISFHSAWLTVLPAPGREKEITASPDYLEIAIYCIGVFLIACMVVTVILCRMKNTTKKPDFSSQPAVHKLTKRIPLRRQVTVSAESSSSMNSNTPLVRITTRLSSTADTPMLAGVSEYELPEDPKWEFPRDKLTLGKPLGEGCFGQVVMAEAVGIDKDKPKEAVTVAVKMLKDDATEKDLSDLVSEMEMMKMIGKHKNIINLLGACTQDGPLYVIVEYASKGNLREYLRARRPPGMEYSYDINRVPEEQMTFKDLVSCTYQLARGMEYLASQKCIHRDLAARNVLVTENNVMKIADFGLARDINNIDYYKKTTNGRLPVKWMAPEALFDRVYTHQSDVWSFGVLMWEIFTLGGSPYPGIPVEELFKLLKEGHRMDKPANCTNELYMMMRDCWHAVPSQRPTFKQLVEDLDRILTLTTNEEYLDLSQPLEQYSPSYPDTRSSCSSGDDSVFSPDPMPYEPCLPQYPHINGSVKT
The mark [1] stands for this setting: read-out: FGFR4 IC50, pre-incubated for 4 hours, ATP 600 uM.

Chain of FGFR4 (P22455 22-802): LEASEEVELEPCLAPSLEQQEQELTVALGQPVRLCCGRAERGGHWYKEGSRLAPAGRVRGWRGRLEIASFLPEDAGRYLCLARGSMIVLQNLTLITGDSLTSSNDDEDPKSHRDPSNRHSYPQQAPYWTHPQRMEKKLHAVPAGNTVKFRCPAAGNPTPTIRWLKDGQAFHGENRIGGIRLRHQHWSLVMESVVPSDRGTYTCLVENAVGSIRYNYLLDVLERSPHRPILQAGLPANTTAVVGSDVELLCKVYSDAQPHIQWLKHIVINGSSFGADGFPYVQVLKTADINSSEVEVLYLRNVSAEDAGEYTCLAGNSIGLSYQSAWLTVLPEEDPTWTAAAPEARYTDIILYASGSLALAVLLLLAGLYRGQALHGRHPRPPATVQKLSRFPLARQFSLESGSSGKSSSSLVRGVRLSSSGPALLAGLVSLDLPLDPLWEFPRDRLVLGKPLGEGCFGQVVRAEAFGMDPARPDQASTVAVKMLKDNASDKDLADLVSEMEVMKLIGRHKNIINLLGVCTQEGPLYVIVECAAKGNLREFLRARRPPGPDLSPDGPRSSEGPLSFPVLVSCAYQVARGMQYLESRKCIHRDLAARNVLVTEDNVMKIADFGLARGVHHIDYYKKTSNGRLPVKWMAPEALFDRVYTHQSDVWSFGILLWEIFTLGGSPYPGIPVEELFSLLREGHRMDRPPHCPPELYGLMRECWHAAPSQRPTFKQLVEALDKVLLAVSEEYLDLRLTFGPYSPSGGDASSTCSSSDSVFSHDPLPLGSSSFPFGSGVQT

As a reminder, the IC50 is the concentration needed to halve the response being measured. As to `C=CC(=O)NCc1cc2c(cn1)CN(c1c(F)c(OC)cc(OC)c1F)C(=O)C21CC1` [Example 1, N-{[2′-(2,6-difluoro-3,5-dimethoxyphenyl)-3′-oxo-2′,3′-dihydro-1′H-spiro[cyclopropane-1,4′-[2,7]naphthyridin]-6′-yl]methyl}acrylamide], the IC50 was less than 10 nM on FGFR4 (read-out: FGFR4 IC50, pre-incubated for 5 to 10 minutes, ATP 600 uM) and less than 10 nM on FGFR4 (setting [1]).
Turning to `C=CC(=O)NCc1cc2c(cn1)CN(c1c(F)c(OC)cc(OC)c1F)C(=O)N2CC` [Example 2, N-((3-(2,6-difluoro-3,5-dimethoxyphenyl)-1-ethyl-2-oxo-1,2,3,4-tetrahydropyrido[4,3-d]pyrimidin-7-yl)methyl)acrylamide], the IC50 at FGFR3 is greater than 200 nM; on FGFR4 (setting [1]), less than 10 nM; on FGFR1 it was greater than 200 nM; on FGFR2, greater than 200 nM.
As for `C=CC(=O)NCc1cc2c(cn1)CN(c1c(F)c(OC)cc(OC)c1F)C(=O)N2c1cccnc1` [Example 3, N-((3-(2,6-difluoro-3,5-dimethoxyphenyl)-2-oxo-1-(pyridin-3-yl)-1,2,3,4-tetrahydropyrido[4,3-d]pyrimidin-7-yl)methyl)acrylamide], the IC50 on FGFR3 is greater than 200 nM; against FGFR4, 10 to 30 nM; on FGFR1, greater than 200 nM; on FGFR2 it was greater than 200 nM.
For the compound `C=CC(=O)NCc1ncc2c(n1)C1(CC1)C(=O)N(c1c(F)c(OC)cc(OC)c1F)C2` [Example 4, N-((6′-(2,6-difluoro-3,5-dimethoxyphenyl)-7′-oxo-6′,7′-dihydro-5′H-spiro[cyclopropane-1,8′-pyrido[4,3-d]pyrimidine]-2′-yl)methyl)acrylamide], the 50% inhibitory concentration (IC50) was greater than 200 nM at FGFR3, 10 to 30 nM against FGFR4, greater than 200 nM at FGFR1 and greater than 200 nM on FGFR2.
For the compound `C=CC(=O)NCc1cc2c(cn1)CN(c1c(F)c(OC)cc(OC)c1F)C(=O)C21CCCC1` [Example 5, N-((2′-(2,6-difluoro-3,5-dimethoxyphenyl)-3′-oxo-2′,3′-dihydro-1′H-spiro[cyclopentane-1,4′-[2,7]naphthyridine]-6′-yl)methyl)acrylamide], the IC50 against FGFR3 was greater than 200 nM; at FGFR4 (setting [1]), less than 10 nM; at FGFR1, greater than 200 nM; on FGFR2, greater than 200 nM.
On to `C=CC(=O)NCc1cc2c(cn1)CN(c1c(F)c(OC)cc(OC)c1F)C(=O)N2c1ccccc1` [Example 6, N-((3-(2,6-difluoro-3,5-dimethoxyphenyl)-2-oxo-1-phenyl-1,2,3,4-tetrahydropyrido[4,3-d]pyrimidin-7-yl)methyl)acrylamide], for which the IC50 was greater than 200 nM at FGFR3, 10 to 30 nM at FGFR4, greater than 200 nM on FGFR1 and greater than 200 nM on FGFR2.
Consider `C=CC(=O)NCc1cc2c(cn1)CN(c1c(F)c(OC)cc(OC)c1F)C(=O)N2c1ccn(C)n1` [Example 7, N-((3-(2,6-difluoro-3,5-dimethoxyphenyl)-1-(1-methyl-1H-pyrazol-3-yl)-2-oxo-1,2,3,4-tetrahydropyrido[4,3-d]pyrimidin-7-yl)methyl)acrylamide], for which the IC50 at FGFR3 was greater than 200 nM; at FGFR4 it was 10 to 30 nM; at FGFR1, greater than 200 nM; on FGFR2 it was greater than 200 nM.
Consider `C=CC(=O)NCc1cc2c(cn1)CN(c1c(F)c(OC)cc(OC)c1F)C(=O)N2[C@H]1CCOC1` [Example 8, (S)—N-((3-(2,6-difluoro-3,5-dimethoxyphenyl)-2-oxo-1-(tetrahydrofuran-3-yl)-1,2,3,4-tetrahydropyrido[4,3-d]pyrimidin-7-yl)methyl)acrylamide], for which the IC50 against FGFR3 is greater than 200 nM; on FGFR4 (setting [1]), less than 10 nM; on FGFR1, greater than 200 nM; at FGFR2, greater than 200 nM.
Take `C=CC(=O)NCc1cc2c(cn1)CN(c1c(F)c(OC)cc(OC)c1F)C(=O)N2C1CC(F)(F)C1` [Example 9, N-((3-(2,6-difluoro-3,5-dimethoxyphenyl)-1-(3,3-difluorocyclobutyl)-2-oxo-1,2,3,4-tetrahydropyrido[4,3-d]pyrimidin-7-yl)methyl)acrylamide]: the IC50 at FGFR3 was greater than 200 nM; at FGFR4, 10 to 30 nM; on FGFR1, greater than 200 nM; at FGFR2 it was greater than 200 nM.
For the compound `C=CC(=O)NCc1cc2c(cn1)CN(c1c(F)c(OC)cc(OC)c1F)C(=O)N2C1CC1` [Example 10, N-((1-cyclopropyl-3-(2,6-difluoro-3,5-dimethoxyphenyl)-2-oxo-1,2,3,4-tetrahydropyrido[4,3-d]pyrimidin-7-yl)methyl)acrylamide], the IC50 is greater than 200 nM against FGFR3, 10 to 30 nM on FGFR4, greater than 200 nM at FGFR1 and greater than 200 nM at FGFR2.
For `C=CC(=O)NCc1cc2c(cn1)CN(c1c(F)c(OC)cc(OC)c1F)C(=O)N2CCOC` [Example 11, N-((3-(2,6-difluoro-3,5-dimethoxyphenyl)-1-(2-methoxyethyl)-2-oxo-1,2,3,4-tetrahydropyrido[4,3-d]pyrimidin-7-yl)methyl)acrylamide], the IC50 is greater than 200 nM against FGFR3, less than 10 nM at FGFR4 (setting [1]), greater than 200 nM on FGFR1 and greater than 200 nM at FGFR2.
For the compound `C=CC(=O)NCc1cc2c(cn1)CN(c1c(F)c(OC)cc(OC)c1F)C(=O)N2CCC` [Example 12, N-((3-(2,6-difluoro-3,5-dimethoxyphenyl)-2-oxo-1-propyl-1,2,3,4-tetrahydropyrido[4,3-d]pyrimidin-7-yl)methyl)acrylamide], the IC50 at FGFR3 was greater than 200 nM; at FGFR4 (setting [1]), less than 10 nM; on FGFR1 it was greater than 200 nM; on FGFR2 it was greater than 200 nM.
In the case of `C=CC(=O)NCc1cc2c(cn1)CN(c1c(F)c(OC)cc(OC)c1F)C(=O)N2CC1CC1` [Example 13, N-((1-(cyclopropylmethyl)-3-(2,6-difluoro-3,5-dimethoxyphenyl)-2-oxo-1,2,3,4-tetrahydropyrido[4,3-d]pyrimidin-7-yl)methyl)acrylamide], the IC50 was less than 10 nM on FGFR4 (setting [1]) and 30 to 200 nM at FGFR1.
Turning to `C=CC(=O)NCc1cc2c(cn1)CN(c1c(F)c(OC)cc(OC)c1F)C(=O)N2CC(F)F` [Example 14, N-((3-(2,6-difluoro-3,5-dimethoxyphenyl)-1-(2,2-difluoroethyl)-2-oxo-1,2,3,4-tetrahydropyrido[4,3-d]pyrimidin-7-yl)methyl)acrylamide], the IC50 is greater than 200 nM at FGFR3, less than 10 nM at FGFR4 (setting [1]), greater than 200 nM at FGFR1 and greater than 200 nM on FGFR2.
As to `C=CC(=O)NCc1cc2c(cn1)CN(c1c(F)c(OC)cc(OC)c1F)C(=O)N2C(C)C` [Example 15, N-((3-(2,6-difluoro-3,5-dimethoxyphenyl)-1-isopropyl-2-oxo-1,2,3,4-tetrahydropyrido[4,3-d]pyrimidin-7-yl)methyl)acrylamide], the IC50 is greater than 200 nM against FGFR3, less than 10 nM at FGFR4 (setting [1]), greater than 200 nM on FGFR1 and greater than 200 nM at FGFR2.
Regarding `C=CC(=O)NCc1cc2c(cn1)CN(c1c(F)c(OC)cc(OC)c1F)C(=O)N2Cc1cccc(F)c1` [Example 16, N-((3-(2,6-difluoro-3,5-dimethoxyphenyl)-1-(3-fluorobenzyl)-2-oxo-1,2,3,4-tetrahydropyrido[4,3-d]pyrimidin-7-yl)methyl)acrylamide], the IC50 on FGFR4 lay in the range of 10 to 30 nM; on FGFR1, 30 to 200 nM.
`C=CC(=O)NCc1cc2c(cn1)CN(c1c(F)c(OC)cc(OC)c1F)C(=O)N2Cc1cnn(C)c1` [Example 18, N-((3-(2,6-difluoro-3,5-dimethoxyphenyl)-1-((1-methyl-1H-pyrazol-4-yl)methyl)-2-oxo-1,2,3,4-tetrahydropyrido[4,3-d]pyrimidin-7-yl)methyl)acrylamide]: the values for the IC50 at FGFR4 (setting [1]) and on FGFR1 were less than 10 nM and 30 to 200 nM, respectively.
In the case of `C=CC(=O)NCc1cc2c(cn1)CN(c1c(F)c(OC)cc(OC)c1F)C(=O)N2C1CCOCC1` [Example 23, N-((3-(2,6-difluoro-3,5-dimethoxyphenyl)-2-oxo-1-(tetrahydro-2H-pyran-4-yl)-1,2,3,4-tetrahydropyrido[4,3-d]pyrimidin-7-yl)methyl)acrylamide], at FGFR4, the IC50 was in the range of 10 to 30 nM.
On to `C=CC(=O)NCc1cc2c(cn1)CN(c1c(F)c(OC)cc(OC)c1F)C(=O)N2C1CCCC1` [Example 28, N-((1-cyclopentyl-3-(2,6-difluoro-3,5-dimethoxyphenyl)-2-oxo-1,2,3,4-tetrahydropyrido[4,3-d]pyrimidin-7-yl)methyl)acrylamide], for which the IC50 was less than 10 nM at FGFR4 (setting [1]) and 30 to 200 nM on FGFR1.
For `C=CC(=O)NCc1cc2c(cn1)CN(c1c(F)c(OC)cc(OC)c1F)C(=O)N2CC(C)C` [Example 29, N-((3-(2,6-difluoro-3,5-dimethoxyphenyl)-1-isobutyl-2-oxo-1,2,3,4-tetrahydropyrido[4,3-d]pyrimidin-7-yl)methyl)acrylamide], the IC50 is greater than 200 nM against FGFR3, less than 10 nM at FGFR4 (setting [1]) and 30 to 200 nM at FGFR1.
The like results for `C=CC(=O)NCc1cc2c(cn1)CN(c1c(F)c(OC)cc(OC)c1F)C(=O)N2CC1CCC1` [Example 30, N-((1-(cyclobutylmethyl)-3-(2,6-difluoro-3,5-dimethoxyphenyl)-2-oxo-1,2,3,4-tetrahydropyrido[4,3-d]pyrimidin-7-yl)methyl)acrylamide] were, in that order, greater than 200 nM, less than 10 nM and 30 to 200 nM.
As for `C=CC(=O)NCc1cc2c(cn1)CN(c1c(F)c(OC)cc(OC)c1F)C(=O)N2CC1CCN(C(=O)OC)CC1` [Example 33, methyl 4-((7-(acrylamidomethyl)-3-(2,6-difluoro-3,5-dimethoxyphenyl)-2-oxo-3,4-dihydropyrido[4,3-d]pyrimidin-1(2H)-yl)methyl)piperidine-1-carboxylate], the IC50 is less than 10 nM on FGFR4 (setting [1]), greater than 200 nM on FGFR1 and greater than 200 nM on FGFR2.
